# According to PMC3600082 (Journal of medicinal chemistry, 2013):
# Entries after “also recorded” stand apart in the source; their conditions may differ.
# Assays:
# [1] = tested on: Gag CA-SP1 cleavage in NL4-3/V370A; assay: Anti-HIV-1 maturation assay; type: cell-based; conditions: virus produced by 293T cells in presence of compound; Western blot
# [2] = tested on: HIV-1 NL4-3 Env-mediated cell-cell fusion; assay: Fusion assay; type: cell-based; conditions: COS cells expressing Env mixed with TZM-bl cells; luciferase
# [3] = tested on: BVM-R HIV-1 variants (V370Δ, V370A, V362I, T371Δ); assay: Multi-cycle viral replication in MT4 cell assay, panel of BVM-R variants; type: cell-based; conditions: for sensitivity of BVM-R viruses to the compound: BVM-R variants
# [4] = tested on: Gag CA-SP1 cleavage in wild type NL4-3; conditions: virus produced by 293T cells in presence of compound; Western blot
# [5] = tested on: NL4-3/V370A; assay: Multi-cycle viral replication in MT4 cell assay; type: cell-based, HIV-1; conditions: relative to compound 1
# [6] = tested on: Gag CA-SP1 cleavage in NL4-3/V362I; assay: Anti-HIV-1 maturation assay; type: cell-based; conditions: virus produced by 293T cells in presence of compound; Western blot
# [7] = tested on: HIV-1 NL4-3; conditions: relative to compound 1; cited from earlier work
Compound,"inhibition of Gag CA-SP1 cleavage (p25 accumulation), NL4-3/V370A [1]",inhibition of HIV-1 entry / Env-mediated cell-cell fusion [2],sensitivity of BVM-R viruses to the compound [3],"inhibition of Gag CA-SP1 cleavage (p25 accumulation), wild type NL4-3 [4]",fold more potent than 1 against the replication of NL4-3/V370A [5],"inhibition of Gag CA-SP1 cleavage (p25 accumulation), NL4-3/V362I [6]",fold more potent than 1 against four BVM-R viruses ([3]; relative to compound 1),increase in anti-HIV-1 maturation activity [7]
"C=C(C)[C@@H]1CC[C@]2(C(=O)O)CC[C@]3(C)[C@H](CC[C@@H]4[C@@]5(C)CC[C@H](OC(=O)CC(C)(C)C(=O)O)C(C)(C)[C@@H]5CC[C@]43C)[C@@H]12 [Compound 1, 3-O-(3’,3’-dimethylsuccinyl)-betulinic acid]",did not inhibit the cleavage of Gag CA-SP1,do not inhibit HIV-1 entry,not sensitive,interfered with the cleavage of Gag CA-SP1,,,,
"C=C(C)[C@@H]1CC[C@]2(C(=O)NCCCCCCCCC(=O)N[C@@H](CCC(N)=O)C(=O)OC)CC[C@]3(C)[C@H](CC[C@@H]4[C@@]5(C)CC[C@H](OC(=O)CC(C)(C)C(=O)O)C(C)(C)[C@@H]5CC[C@]43C)[C@@H]12 [Compound 6, Methyl N-[N’-[3β-O-(3’,3’-dimethylsuccinyl)-betulinic acid-28-oyl]-9-aminononanoyl]-L-glutaminate]",resulted in accumulation of CA-SP1 (p25),do not inhibit HIV-1 entry; also recorded: did not inhibit,sensitive,,at least 20 fold,accumulation of p25 was even more pronounced,at least 20 fold,
"C=C(C)[C@@H]1CC[C@]2(C(=O)N3CCN(CCCCC(=O)O)CC3)CC[C@]3(C)[C@H](CC[C@@H]4[C@@]5(C)CC[C@H](OC(=O)CC(C)(C)C(=O)O)C(C)(C)[C@@H]5CC[C@]43C)[C@@H]12 [Compound 30, N-[3β-O-(3′,3′-dimethylsuccinyl)lup-20(29)-en-28-oyl]-5-piperazinepentanoic acid]",,,ineffective; also recorded: not effective,,,,,greater than 10 fold
